Measurements published in ChEMBL document CHEMBL3588745, “Optimization of ADME Properties for Sulfonamides Leading to the Discovery of a T-Type Calcium Channel Blocker, ABT-639” (ACS Med Chem Lett, 2015).
pEC50, pIC50: −log10 of the molar value. Where “and” joins values, the source holds several entries; their conditions need not be identical. Equal values may be shown once. Calls of active or inactive are those of the source. No cut-off for these calls is given here.

Columns and labels:
[1] = target: T1, Voltage-dependent T-type calcium channel subunit alpha-1H (Homo sapiens, UniProt O95180); assay: Inhibition of human recombinant Cav3.2 channel
T1 sequence (O95180 whole entry): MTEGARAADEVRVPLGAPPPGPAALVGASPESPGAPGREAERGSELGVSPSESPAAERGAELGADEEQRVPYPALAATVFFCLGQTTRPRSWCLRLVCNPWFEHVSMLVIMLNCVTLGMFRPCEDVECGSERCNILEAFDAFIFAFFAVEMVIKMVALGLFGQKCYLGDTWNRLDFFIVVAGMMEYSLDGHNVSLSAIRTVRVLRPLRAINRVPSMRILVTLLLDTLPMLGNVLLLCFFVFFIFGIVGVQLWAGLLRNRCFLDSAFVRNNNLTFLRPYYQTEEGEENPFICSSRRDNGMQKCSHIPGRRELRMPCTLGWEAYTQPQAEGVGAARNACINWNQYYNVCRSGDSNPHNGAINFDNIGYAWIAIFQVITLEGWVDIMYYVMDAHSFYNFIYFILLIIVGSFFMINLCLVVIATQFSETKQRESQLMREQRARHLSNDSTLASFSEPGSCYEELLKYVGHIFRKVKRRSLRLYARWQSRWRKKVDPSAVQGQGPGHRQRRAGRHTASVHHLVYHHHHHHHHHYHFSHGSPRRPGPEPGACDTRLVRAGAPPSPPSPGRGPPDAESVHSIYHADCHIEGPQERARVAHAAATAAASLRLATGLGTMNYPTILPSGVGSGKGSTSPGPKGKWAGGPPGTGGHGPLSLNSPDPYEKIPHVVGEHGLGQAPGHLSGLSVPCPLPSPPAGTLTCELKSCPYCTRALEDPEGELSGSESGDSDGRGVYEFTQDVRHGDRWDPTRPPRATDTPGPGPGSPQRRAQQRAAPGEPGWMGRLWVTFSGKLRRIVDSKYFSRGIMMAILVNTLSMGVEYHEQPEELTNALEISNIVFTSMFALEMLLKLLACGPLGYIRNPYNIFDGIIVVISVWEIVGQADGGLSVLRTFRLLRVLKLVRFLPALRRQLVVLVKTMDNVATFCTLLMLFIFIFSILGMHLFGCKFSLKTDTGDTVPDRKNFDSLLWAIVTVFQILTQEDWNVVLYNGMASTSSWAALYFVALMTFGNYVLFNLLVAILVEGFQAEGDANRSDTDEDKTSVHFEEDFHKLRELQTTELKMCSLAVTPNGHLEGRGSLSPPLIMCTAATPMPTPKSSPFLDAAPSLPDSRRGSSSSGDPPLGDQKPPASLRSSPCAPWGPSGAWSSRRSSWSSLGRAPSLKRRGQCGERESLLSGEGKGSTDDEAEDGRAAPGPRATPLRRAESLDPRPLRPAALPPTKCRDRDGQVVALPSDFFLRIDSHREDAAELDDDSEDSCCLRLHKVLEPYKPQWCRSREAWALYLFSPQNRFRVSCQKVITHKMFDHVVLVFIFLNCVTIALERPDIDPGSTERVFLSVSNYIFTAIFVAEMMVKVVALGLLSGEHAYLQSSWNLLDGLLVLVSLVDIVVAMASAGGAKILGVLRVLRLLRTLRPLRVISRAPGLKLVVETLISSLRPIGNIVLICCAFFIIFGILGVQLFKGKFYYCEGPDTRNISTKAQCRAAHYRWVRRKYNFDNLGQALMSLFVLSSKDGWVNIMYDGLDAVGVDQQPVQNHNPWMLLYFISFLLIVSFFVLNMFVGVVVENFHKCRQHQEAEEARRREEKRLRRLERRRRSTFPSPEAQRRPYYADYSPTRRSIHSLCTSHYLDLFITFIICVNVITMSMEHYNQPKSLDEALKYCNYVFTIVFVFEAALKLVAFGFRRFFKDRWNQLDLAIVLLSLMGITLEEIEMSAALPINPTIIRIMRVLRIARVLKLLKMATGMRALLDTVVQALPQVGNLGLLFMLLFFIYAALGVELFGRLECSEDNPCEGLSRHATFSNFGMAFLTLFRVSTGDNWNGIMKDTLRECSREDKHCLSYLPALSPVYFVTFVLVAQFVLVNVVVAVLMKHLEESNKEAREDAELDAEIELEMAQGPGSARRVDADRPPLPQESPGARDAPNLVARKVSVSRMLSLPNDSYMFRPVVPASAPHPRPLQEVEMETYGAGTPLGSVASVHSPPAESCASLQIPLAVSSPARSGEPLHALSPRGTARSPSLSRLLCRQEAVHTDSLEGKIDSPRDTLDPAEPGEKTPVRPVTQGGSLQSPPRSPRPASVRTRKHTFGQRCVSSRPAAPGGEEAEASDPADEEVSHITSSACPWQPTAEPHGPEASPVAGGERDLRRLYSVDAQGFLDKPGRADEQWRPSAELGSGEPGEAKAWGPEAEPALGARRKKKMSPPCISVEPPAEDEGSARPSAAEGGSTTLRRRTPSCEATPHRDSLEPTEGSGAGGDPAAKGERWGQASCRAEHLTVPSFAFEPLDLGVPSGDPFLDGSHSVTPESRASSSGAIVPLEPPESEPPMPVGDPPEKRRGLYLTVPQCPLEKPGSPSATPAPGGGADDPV

[2] = Stability in rat liver microsomes assessed as compound remaining at 1 uM after 30 mins; type: ADME; conditions: read-out: Stability
[3] = Plasma clearance in rat at 5 uM/kg, iv or 30 uM/kg, po; type: ADME, organism-based
[4] = target: T1, Voltage-dependent T-type calcium channel subunit alpha-1H; assay: Inhibition of human recombinant Cav3.2 channel at 10 uM
[5] = Terminal phase volume of distribution in rat at 5 uM/kg, iv or 30 uM/kg, po; type: ADME, organism-based; conditions: in vivo, read-out: Vbeta
[6] = Stability in human liver microsomes assessed as compound remaining at 1 uM after 30 mins; type: ADME; conditions: read-out: Stability
[7] = Stability in dog liver microsomes assessed as compound remaining at 1 uM after 30 mins; type: ADME, Canis lupus familiaris; conditions: read-out: Stability
[8] = Stability in monkey liver microsomes assessed as compound remaining at 1 uM after 30 mins; type: ADME, Macaca mulatta; conditions: rhesus monkey, read-out: Stability
[9] = target: Voltage-dependent T-type calcium channel subunit alpha-1H (Rattus norvegicus, UniProt Q9EQ60); assay: Inhibition of Cav3.2 channel in rat DRG neurons assessed as reduction in LVA currents
Chain of Voltage-dependent T-type calcium channel subunit alpha-1H (Rattus norvegicus, UniProt Q9EQ60) (Q9EQ60 whole entry): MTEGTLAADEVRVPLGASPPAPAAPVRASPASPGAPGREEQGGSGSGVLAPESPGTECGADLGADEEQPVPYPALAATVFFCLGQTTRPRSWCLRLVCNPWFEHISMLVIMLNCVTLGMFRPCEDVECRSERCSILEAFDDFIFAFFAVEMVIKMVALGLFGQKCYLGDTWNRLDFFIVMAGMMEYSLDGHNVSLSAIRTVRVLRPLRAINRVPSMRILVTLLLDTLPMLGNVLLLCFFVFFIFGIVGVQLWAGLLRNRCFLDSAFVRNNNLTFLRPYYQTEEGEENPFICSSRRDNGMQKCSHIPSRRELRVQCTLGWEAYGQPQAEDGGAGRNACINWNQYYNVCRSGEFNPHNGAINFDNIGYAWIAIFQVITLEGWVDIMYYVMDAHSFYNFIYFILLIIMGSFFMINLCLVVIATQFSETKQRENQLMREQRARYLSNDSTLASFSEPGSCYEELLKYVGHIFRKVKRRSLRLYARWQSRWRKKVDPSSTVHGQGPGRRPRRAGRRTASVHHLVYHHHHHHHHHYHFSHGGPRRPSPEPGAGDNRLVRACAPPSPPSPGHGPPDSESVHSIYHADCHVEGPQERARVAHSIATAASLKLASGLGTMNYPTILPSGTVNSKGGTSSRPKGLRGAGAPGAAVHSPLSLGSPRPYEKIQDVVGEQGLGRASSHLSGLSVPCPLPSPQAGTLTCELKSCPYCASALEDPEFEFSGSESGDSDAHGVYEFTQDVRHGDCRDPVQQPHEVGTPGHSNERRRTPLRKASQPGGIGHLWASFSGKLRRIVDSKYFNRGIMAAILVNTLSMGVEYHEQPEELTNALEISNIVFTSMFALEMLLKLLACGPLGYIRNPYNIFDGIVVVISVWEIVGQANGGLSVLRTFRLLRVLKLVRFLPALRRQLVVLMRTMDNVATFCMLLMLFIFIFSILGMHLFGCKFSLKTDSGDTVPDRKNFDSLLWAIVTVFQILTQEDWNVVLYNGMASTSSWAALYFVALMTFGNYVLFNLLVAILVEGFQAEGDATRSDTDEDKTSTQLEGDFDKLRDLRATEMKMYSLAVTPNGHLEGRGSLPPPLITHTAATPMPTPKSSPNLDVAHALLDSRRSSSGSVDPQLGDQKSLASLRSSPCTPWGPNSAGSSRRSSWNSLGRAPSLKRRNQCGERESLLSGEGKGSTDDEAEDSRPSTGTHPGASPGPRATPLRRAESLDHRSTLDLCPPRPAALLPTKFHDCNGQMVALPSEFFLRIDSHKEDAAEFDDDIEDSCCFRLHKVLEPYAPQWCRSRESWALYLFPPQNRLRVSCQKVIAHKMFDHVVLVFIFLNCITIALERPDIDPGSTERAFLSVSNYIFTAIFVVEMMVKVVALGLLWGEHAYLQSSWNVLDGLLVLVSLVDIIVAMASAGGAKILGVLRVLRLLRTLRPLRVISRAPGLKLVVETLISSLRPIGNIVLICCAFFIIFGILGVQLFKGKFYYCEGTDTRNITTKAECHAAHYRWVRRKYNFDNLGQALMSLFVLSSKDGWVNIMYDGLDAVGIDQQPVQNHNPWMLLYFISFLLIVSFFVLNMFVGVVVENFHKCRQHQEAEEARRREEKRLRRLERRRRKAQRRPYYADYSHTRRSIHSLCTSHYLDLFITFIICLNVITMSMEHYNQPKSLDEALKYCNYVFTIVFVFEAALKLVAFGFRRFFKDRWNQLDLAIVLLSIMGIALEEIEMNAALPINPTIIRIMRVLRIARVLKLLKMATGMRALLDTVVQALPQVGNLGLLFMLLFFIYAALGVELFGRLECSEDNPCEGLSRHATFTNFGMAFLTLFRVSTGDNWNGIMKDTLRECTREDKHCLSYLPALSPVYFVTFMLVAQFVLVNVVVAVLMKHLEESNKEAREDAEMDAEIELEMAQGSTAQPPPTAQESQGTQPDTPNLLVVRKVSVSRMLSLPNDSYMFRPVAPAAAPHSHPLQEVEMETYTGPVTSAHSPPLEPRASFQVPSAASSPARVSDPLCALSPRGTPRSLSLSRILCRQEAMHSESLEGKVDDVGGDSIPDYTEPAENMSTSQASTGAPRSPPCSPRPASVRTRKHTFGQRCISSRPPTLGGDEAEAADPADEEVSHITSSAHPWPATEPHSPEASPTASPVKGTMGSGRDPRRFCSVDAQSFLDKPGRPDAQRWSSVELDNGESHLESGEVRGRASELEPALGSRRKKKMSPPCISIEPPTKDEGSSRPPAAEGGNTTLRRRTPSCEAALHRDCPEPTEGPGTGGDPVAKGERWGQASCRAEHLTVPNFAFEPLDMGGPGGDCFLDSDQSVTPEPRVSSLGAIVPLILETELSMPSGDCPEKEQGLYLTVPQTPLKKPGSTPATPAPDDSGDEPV

[10] = Aqueous solubility in phosphate buffer at pH 7.4; type: physicochemical
[11] = Solubility in 0.1 HCl solution; type: physicochemical
[12] = Protein binding in rat; type: ADME, organism-based; conditions: plasma, read-out: PB (converted)
[13] = Protein binding in human; type: ADME, organism-based; conditions: plasma, read-out: PB (converted)
[14] = target: T2, Nuclear receptor subfamily 1 group I member 2 (Homo sapiens, UniProt O75469); assay: Activation of PXR (unknown origin) assessed as induction of CYP3A4; type: ADME
T2 sequence (O75469 whole entry): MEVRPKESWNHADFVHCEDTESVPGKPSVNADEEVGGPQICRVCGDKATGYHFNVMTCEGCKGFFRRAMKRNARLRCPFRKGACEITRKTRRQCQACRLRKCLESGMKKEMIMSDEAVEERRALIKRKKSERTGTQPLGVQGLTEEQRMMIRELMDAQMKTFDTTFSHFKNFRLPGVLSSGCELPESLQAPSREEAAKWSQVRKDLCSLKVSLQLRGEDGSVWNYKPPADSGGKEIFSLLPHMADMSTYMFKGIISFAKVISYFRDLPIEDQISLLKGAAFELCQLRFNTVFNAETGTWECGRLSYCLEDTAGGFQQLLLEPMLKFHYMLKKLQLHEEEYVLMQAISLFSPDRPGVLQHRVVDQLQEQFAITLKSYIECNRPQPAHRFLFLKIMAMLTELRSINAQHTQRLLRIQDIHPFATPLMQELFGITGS

[15] = target: T3, Aryl hydrocarbon receptor (Homo sapiens, UniProt P35869); assay: Activation of aryl hydrocarbon receptor (unknown origin) assessed as induction of CYP1A2 mRNA expression; type: ADME
T3 sequence (P35869 whole entry): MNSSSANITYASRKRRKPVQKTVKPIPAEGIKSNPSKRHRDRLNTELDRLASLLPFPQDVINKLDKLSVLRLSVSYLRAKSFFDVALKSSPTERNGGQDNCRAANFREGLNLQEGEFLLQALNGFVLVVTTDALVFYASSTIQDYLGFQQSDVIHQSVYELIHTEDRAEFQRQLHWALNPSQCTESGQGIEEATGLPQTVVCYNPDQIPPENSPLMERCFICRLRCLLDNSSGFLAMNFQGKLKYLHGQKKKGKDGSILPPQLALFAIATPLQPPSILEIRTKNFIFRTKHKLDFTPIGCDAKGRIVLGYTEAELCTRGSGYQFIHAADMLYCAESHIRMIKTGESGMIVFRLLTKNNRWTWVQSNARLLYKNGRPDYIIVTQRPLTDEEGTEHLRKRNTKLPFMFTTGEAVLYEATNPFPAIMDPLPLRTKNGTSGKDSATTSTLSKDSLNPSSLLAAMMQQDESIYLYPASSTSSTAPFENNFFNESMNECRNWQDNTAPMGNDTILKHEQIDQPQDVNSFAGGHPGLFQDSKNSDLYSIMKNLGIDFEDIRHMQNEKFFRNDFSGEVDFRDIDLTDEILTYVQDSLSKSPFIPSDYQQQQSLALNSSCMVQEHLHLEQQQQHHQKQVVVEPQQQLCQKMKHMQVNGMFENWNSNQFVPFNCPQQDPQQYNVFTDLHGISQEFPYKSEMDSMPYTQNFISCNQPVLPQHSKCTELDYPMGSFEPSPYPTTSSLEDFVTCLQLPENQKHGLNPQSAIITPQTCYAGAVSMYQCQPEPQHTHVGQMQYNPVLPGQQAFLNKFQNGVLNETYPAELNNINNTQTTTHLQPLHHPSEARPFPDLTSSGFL

Rattus norvegicus [16] = assay: Antinociceptive activity in Sprague-Dawley rat model of capsaicin-induced secondary mechanical hyperalgesia model assessed as attenuation of nociception at 3 to 100 mg/kg, po administered 1 hr before behavioral testing by von Frey filaments test; type: functional, organism-based
Rattus norvegicus [17] = assay: Toxicity in orally dosed Sprague-Dawley rat assessed effect on animal balance by Edge test; type: organism-based; conditions: in vivo, po
Rattus norvegicus [18] = assay: Toxicity in orally dosed Sprague-Dawley rat assessed effect on animal motor performance by Edge test; type: organism-based; conditions: in vivo, po
Plasma = assay: Plasma concentration in Sprague-Dawley rat at 30 mg/kg, iv; type: ADME, organism-based; conditions: in vivo
Rattus norvegicus [19] = assay: Cardiovascular toxicity in Sprague-Dawley rat at 30 mg/kg, iv assessed as induction of changes in mean arterial pressure; type: organism-based, Artery; conditions: in vivo
Rattus norvegicus [20] = assay: Cardiovascular toxicity in Sprague-Dawley rat at 30 mg/kg, iv assessed as induction of changes in heart rate; type: organism-based; conditions: in vivo
Rattus norvegicus [21] = assay: Cardiovascular toxicity in Sprague-Dawley rat at 30 mg/kg, iv assessed as induction of changes in left ventricular contractility; type: organism-based, Heart left ventricle; conditions: in vivo
Rattus norvegicus [22] = assay: Cardiovascular toxicity in Sprague-Dawley rat at 30 mg/kg, iv assessed as induction of changes in vascular resistance; type: organism-based; conditions: in vivo
Rattus norvegicus [23] = assay: Antinociceptive activity in Sprague-Dawley rat model of capsaicin-induced secondary mechanical hyperalgesia model assessed as attenuation of nociception at 500 uM/kg, ip administered 1 hr before behavioral testing by von Frey filaments test; type: functional, organism-based

Structure (SMILES): O=C(c1cc(S(=O)(=O)Nc2ccccc2F)c(Cl)cc1Cl)N1CCN2CCC[C@@H]2C1
- pIC50 [1]: 4.72

Structure (SMILES): CC1CC(C)CN(C(=O)c2cccc(S(=O)(=O)N3c4ccccc4CC3C)c2)C1 (configuration not stated)
- pIC50 [1]: 5.52
- remaining at 0.5 h, 1 µM [2]: 0.3%

Structure (SMILES): O=C(c1cccc(S(=O)(=O)Nc2ccc(C(F)(F)F)cc2)c1)N1CCN2CCC[C@@H]2C1
- clearance [3]: 7.5 mL/min/kg
- inhibition [4]: < 30%

Structure (SMILES): Cl.O=C(c1cc(S(=O)(=O)Nc2ccccc2F)c(F)cc1Cl)N1CCN2CCC[C@@H]2C1
- pIC50 [1]: 5.64
- remaining at 0.5 h, 1 µM [2]: 81%
- Vd at 5 µmol/kg [5]: 2.7 L/kg
- clearance [3]: 9.17 mL/min/kg
- remaining at 0.5 h, 1 µM [6]: 95%
- remaining at 0.5 h, 1 µM [7]: 100%
- remaining at 0.5 h, 1 µM [8]: 88%
- pIC50 [9]: 5.12
- solubility [10]: 489 µM
- solubility [11]: > 9500 µM
- fraction unbound [12]: 0.111
- fraction unbound [13]: 0.148
- pEC50 [14]: < 5.00
- pEC50 [15]: < 5.00
- Activity (Rattus norvegicus [16]): Dose-dependent effect
- ED50 (Rattus norvegicus [17]): > 300 mg kg-1 and 114 ug ml-1
- ED50 (Rattus norvegicus [18]): > 300 mg kg-1 and 114 ug ml-1
- Cp (Plasma): 43900 ng/mL
- Activity (Rattus norvegicus [19]): Non-toxic
- Activity (Rattus norvegicus [20]): Non-toxic
- Activity (Rattus norvegicus [21]): Non-toxic
- Activity (Rattus norvegicus [22]): Non-toxic

Structure (SMILES): O=C(c1cccc(S(=O)(=O)Nc2ccc(C(F)(F)F)cc2)c1)N1CCN2CCC[C@H]2C1
- clearance [3]: 13.5 mL/min/kg
- inhibition [4]: < 30%

Structure (SMILES): O=C(c1cccc(S(=O)(=O)Nc2ccccc2F)c1)N1CCN2CCC[C@@H]2C1
- remaining at 0.5 h, 1 µM [2]: 68%
- Vd at 5 µmol/kg [5]: 0.65 L/kg
- clearance [3]: 29.8 mL/min/kg

Structure (SMILES): O=C(c1cccc(S(=O)(=O)Nc2ccccc2Cl)c1)N1CCN2CCC[C@@H]2C1
- clearance [3]: 32.2 mL/min/kg
- inhibition [4]: < 30%

Structure (SMILES): O=C(c1cccc(S(=O)(=O)Nc2c(F)cccc2F)c1)N1CCN2CCC[C@@H]2C1
- clearance [3]: 15.3 mL/min/kg
- inhibition [4]: < 30%

Structure (SMILES): CN(c1ccccc1F)S(=O)(=O)c1cc(C(=O)N2CCN3CCC[C@@H]3C2)c(Cl)cc1F
- remaining at 0.5 h, 1 µM [2]: 0.04%
- remaining at 0.5 h, 1 µM [6]: < 0.01%

Structure (SMILES): O=C(c1cccc(S(=O)(=O)Nc2ccccc2C(F)(F)F)c1)N1CCN2CCC[C@@H]2C1
- clearance [3]: 12.3 mL/min/kg
- inhibition [4]: < 30%

Structure (SMILES): O=C(c1cccc(S(=O)(=O)Nc2ccccc2F)c1)N1CCN2CCC[C@H]2C1
- clearance [3]: 56 mL/min/kg
- inhibition [4]: < 30%

Structure (SMILES): O=C(c1cccc(S(=O)(=O)Nc2cccc(F)c2F)c1)N1CCN2CCC[C@H]2C1
- clearance [3]: 38 mL/min/kg
- inhibition [4]: < 30%

Structure (SMILES): CC1Cc2ccccc2N1S(=O)(=O)c1cccc(C(=O)NCC2CCCCC2)c1 (configuration not stated)
- pIC50 [1]: 5.30
- remaining at 0.5 h, 1 µM [2]: 0.1%

Structure (SMILES): C[C@@H]1CN(C(=O)c2cccc(S(=O)(=O)Nc3ccc(F)cc3)c2)C[C@H](C)O1
- remaining at 0.5 h, 1 µM [2]: 46%
- Vd at 5 µmol/kg [5]: 0.75 L/kg
- clearance [3]: 27.7 mL/min/kg

Structure (SMILES): O=C(c1cccc(S(=O)(=O)Nc2cccc(F)c2F)c1)N1CCN2CCC[C@@H]2C1
- clearance [3]: 20.2 mL/min/kg
- inhibition [4]: < 30%

Structure (SMILES): NCC1(CC(=O)O)CCCCC1
- Activity (Rattus norvegicus [23]): Active
